# Results reported in patent US8940310B2, “Methods of treatment using TLR7 and/or TLR9 inhibitors” (Dynavax Technologies Corporation, priority 2010, dated 2015).
# How the values were obtained:
# TLR7 = biological target: T1, TLR7 (Mus musculus, UniProt P58681); assay: Tape stripping in TLR9-deficient mice; type: in vivo; conditions: 100 μg sc, 24 hr
# T1 construct: endogenous in cells; host or cells: primary splenocytes of BALB/c mice
# T1 sequence (P58681 27-1050): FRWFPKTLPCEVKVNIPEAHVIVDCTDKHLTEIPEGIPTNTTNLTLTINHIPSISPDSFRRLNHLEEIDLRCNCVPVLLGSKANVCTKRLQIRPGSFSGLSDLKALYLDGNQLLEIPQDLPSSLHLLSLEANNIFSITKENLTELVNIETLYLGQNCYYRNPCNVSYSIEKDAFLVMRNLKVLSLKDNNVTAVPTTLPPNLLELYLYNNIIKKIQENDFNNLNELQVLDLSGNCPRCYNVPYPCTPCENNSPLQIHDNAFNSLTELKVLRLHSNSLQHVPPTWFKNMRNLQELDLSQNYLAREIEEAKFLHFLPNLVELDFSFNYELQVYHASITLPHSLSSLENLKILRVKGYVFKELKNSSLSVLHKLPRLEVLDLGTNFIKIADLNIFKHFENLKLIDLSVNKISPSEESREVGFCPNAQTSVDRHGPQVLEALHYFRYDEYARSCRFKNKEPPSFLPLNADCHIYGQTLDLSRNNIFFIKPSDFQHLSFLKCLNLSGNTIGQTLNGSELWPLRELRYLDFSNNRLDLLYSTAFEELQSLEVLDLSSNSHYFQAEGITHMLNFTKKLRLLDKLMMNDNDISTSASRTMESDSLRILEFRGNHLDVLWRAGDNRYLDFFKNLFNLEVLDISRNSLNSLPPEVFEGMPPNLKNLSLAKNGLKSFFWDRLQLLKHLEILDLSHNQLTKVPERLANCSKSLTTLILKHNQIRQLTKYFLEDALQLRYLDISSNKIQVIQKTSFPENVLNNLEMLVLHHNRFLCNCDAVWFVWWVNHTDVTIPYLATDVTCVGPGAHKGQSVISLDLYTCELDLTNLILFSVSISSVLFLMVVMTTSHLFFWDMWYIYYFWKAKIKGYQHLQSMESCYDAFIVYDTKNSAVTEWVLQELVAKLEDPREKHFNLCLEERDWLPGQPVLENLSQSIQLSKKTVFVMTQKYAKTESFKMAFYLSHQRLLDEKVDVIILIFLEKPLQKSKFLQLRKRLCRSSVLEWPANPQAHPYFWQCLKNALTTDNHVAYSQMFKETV
# Protocol: (A) TLR7−/− (black histograms) and age matched WT C57/BL6 mice (grey histograms) were either left untreated (naive) or tape stripped to provoke inflammation. 24 hr later, skin biopsies were isolated and the levels of proinflammatory genes evaluated by Taqman. n=10 mice is shown (Mean±SEM); * p≦0.05. B) TLR9−/− were tape stripped (black histograms) or tape stripped immediately after treatment (s.c) with the dual TLR7 and TLR9 inhibitor IRS 954 (100 μg; sc) (dashed histograms). Age matched WT C57/BL6 mice were either left untreated (naïve; white histograms) or tape stripped (grey histograms). 24 hr later, skin biopsies were isolated and the levels of proinflammatory genes evaluated by Taqman. n=10 mice is shown (Mean±SEM); * p≦0.05.
# C57BL/6 and 129 mice were purchased from Charles River Laboratories. (NZBxNZW)F1 female mice were purchased from Jackson Laboratories and used at 18-22 weeks of age. MyD88/KO and TLR9/KO mouse colonies were maintained at Simonsen Laboratories and used with age matched C57BL/6 wild type controls at 8-12 weeks of age. Tape stripping was performed after shaving the dorsal area (3×3 cm) using 10 strokes with duct tape. IRS was administered just before tape stripping SC at a distant site. […] Percentage of area with open lesions in (NZBxNZW)F1 and normal mice was evaluated with Nikon software NIS-elements.
# PDC [1] = conditions: in vitro, with GC
# PDC [2] = system: PDC
substance,measurement,setting,value
"5′-TGCTCCTGGAGGGGTTGT-3′ (DNA, backbone not given here) [SEQ ID NO:42]",inhibition of skin gene expression,TLR7,completed the inhibition
same,GC sensitivity of TLR7/9-stimulated PDC,PDC [1],restored GC sensitivity to PDC
same,GC-induced neutrophil expansion,"PDC [2]; lupus-prone mice, blood",reduction of the GC-induced neutrophil expansion
same,"sensitivity to GC of PDC, cDC and B cells","PDC [2]; lupus-prone mice, spleen and blood","enhanced the sensitivity to GC of PDC, cDC and B cells"
same,cell death without GC,"PDC [2]; mouse, in vivo",did not induce cell death without GC
